In US20080221104A1, “SOLUBLE EPOXIDE HYDROLASE INHIBITORS FOR THE TREATMENT OF RHEUMATOID ARTHRITIS” (Arete Therapeutics, Inc., priority 2006, published 2008):

Key:
[1] = Pharmacokinetic study in mice; type: in vivo; conditions: mouse plasma; for MRT: read-out: mean resident time (MRT)
Protocol: All animals were weighed prior to dose administration. […].
Blood (˜0.5 mL) was collected by cardiac puncture at sacrifice and transferred into vacutainer tubes containing sodium heparin at the time points outlined (See FIG. 3). After collection, the blood samples were centrifuged at approximately 1000×g at 2-8° C. for approximately 15 minutes. Each plasma specimen was collected, aliquoted into 2 microcentrifuge tubes, and stored at about −20° C. until analysis by LC/MS (liquid chromatography/mass spectrometry).
The quantitation method for pharmacokinetics is summarized as follows:
To prepare calibration standards for quantitation, the working standard was diluted 1 in 100 into rat plasma to 5 μg/mL (5 μL+495 μL), then diluted further with the same medium by 3-fold serial dilution. A total of seven dilutions were performed yielding eight calibration standards ranging from 2.29 to 5000 ng/mL. Calibration standards 3, 5 and 7 were used as the low, mid and high QC samples, respectively.
Calibration standards, QC samples and study samples were prepared for HPLC injection by precipitating plasma (25 μL) with 3× volumes (75 μL) of ice cold Internal Standard Solution. Following centrifugation at 6100 g for 30 minutes, 40 μL of each supernatant was transferred to a deep-well microplate and diluted with 200 μL of 0.2% formic acid in water.

[2] = molecular target: T1, sEH (Homo sapiens, UniProt P34913); assay: sEH inhibition, fluorescent CMNPC substrate assay (IC50 determination); type: biochemical; conditions: for inhibition at 0.05 µM: tested at 50 nM
T1 sequence (P34913 1-555): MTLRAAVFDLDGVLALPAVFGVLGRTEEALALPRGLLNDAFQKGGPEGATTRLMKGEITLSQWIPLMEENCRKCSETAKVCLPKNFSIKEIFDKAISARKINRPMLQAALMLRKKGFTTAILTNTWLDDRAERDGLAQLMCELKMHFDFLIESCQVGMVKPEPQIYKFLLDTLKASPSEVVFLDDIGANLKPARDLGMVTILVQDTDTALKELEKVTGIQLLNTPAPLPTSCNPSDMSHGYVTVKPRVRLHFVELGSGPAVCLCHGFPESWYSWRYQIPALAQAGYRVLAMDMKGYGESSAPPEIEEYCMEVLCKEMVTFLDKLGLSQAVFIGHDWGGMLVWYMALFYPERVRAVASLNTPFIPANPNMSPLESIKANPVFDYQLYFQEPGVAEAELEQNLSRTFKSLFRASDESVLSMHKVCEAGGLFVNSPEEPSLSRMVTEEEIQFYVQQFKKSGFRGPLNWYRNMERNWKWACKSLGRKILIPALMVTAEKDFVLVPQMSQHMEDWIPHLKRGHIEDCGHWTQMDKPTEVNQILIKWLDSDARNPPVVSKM
Protocol: The IC50s for each inhibitor were determined according to the following procedure:
The substrate for the reaction was:
Therefore, well A2 would refer to a well in the first row and second column of the plate.
In a black 96 well plate, all the wells are filled with 150 μL of buffer A (Buffer A: Bis/Tris HCl, 25 mM, pH 7.0 plus 0.1 mg/mL BSA). DMSO (2 microliters) was added in well A2 and A3, and then was added 2 μL of inhibitor solution in A1 and A4 through A12. […] The plate was incubated for 5 minutes in the plate reader at 30° C. During incubation, the working solution of substrate was prepared by mixing 3.68 mL of buffer A with 266 μL of 0.5 mM substrate solution. At t=0, 30 μL of working substrate solution was added and readings were started ([S]final: 5 μM). […] The velocities were used to analyze and calculate the IC50s.

[3] = test system: IL-6; assay: LPS-induced cytokine production in mice (plasma IL-6); type: in vivo, mice (C57-B6)
Source text: Mouse Model of Inflammation Supporting Arthritis Model: Study of effect of Treatments on LPS-Induced Cytokine Production Mice (C57-B6 mice, ˜7-8 wks, male, Charles River Labs, 22-28 g) were quarantined and examined daily during 72 hr quarantine period. Any sign of clinical distress, disease, or injury were noted on a daily basis. […] Accepted mice were transferred to routine maintenance and housed at 5 per cage. Each mouse was identified by an ear tag. The vehicle or pharmaceutically acceptable carrier for test compounds was 20% hydroxypropyl-beta-cyclodextrin for subcutaneous and interperoneal routes (Groups 6-9). For Groups 1-5, the “Vehicle” as used in this study is 0.1% Tween 80 and 1% carboxymethylcellulose (CMC). The 0.1% Tween 80 and 1% carboxymethylcellulose (CMC) was the Vehicle used in the mice in Groups 1 and 2. The compounds were administered with pre-formulated material at a dose of 0.2 mL for 25 g mouse (8.0 mL per kg body weight). […] At the initiation of the study (T=0) animals were weighed and administered with test material or Vehicle. Five 5 mice per treatment per time point group were completed. At the first time point (T=24 hours) the animals were administered with test material or Vehicle again as above. [0.2 mL for 25 g mouse (8.0 mL per kg body weight)] [table] At the time point T=25 hour, animals were administered 2 mL/kg of an LPS solution (5 mg/mL, lipopolysaccharide from Escherichia coli 0111:B4; dissolved in sterile PBS) or vehicle by intraperitoneal route. At this time point, Group 1 mice received Vehicle only as the non-LPS control and Groups 2 through 9 mice received LPS and Vehicle (Group 2) or Test Materials. At the time point T=30 hour, mice in Groups 1 through 9 were anesthetized and exsanguinated into EDTA-treated microtainer tubes. […] The plasma samples was stored at −20° C. until testing. Plasma IL-6 was measured by Luminex cytokine multiplex measurements using beads supplied by Linco.

[4] = test system: DBA/1 mice; assay: Collagen induced rheumatoid arthritis (RA) mouse model; type: in vivo, mice (DBA/1)
Protocol: Mice were immunized with collagen as follows. Collagen (Bovine Type II, 0.05M in acetic acid) was emulsified with CFA (Complete Freund's Adjuvant) by mixing one volume of CFA with an equal amount of the collagen solution. Mixing was continued until a stable, stiff emulsion resulted. To ascertain the desired stability of the emulsion, 1 drop of emulsion was added into a water-filled beaker. The emulsion was considered stable if it remained in the water as a solid. For the collagen IP boost on day 21, the Bovine Type II collagen (Condrex, Seattle, Wash.) was thawed at 4° C. overnight and then mixed 1:1 with the PBS supplied. 200 μL was injected IP into each mouse. Four groups of 10 mice (40 total), aged 7-8 weeks were acclimated a minimum of 5 days prior to start of the study. Animals were housed 5 per cage in microisolators in a 12:12 light dark cycle (all work was done in a BioBubble Hood™). Standard maintenance mouse chow diet (Harlan Teklad 8640) was supplied. Water and food were given ad libitum. High CIA-susceptible DBA/1 mice were utilized which generally develop arthritis 3-5 weeks after immunization with Bovine type TI collagen. Fully developed arthritis, including red and swollen paws, was to be observed 3-5 days after the onset. […] Time of dosing was approximately the same each day following through the end of the study. The mice groups were fed as follows through the duration of the experiment: Group 1) Chow (Referred to as “Vehicle” in FIG. 1). Group 2) Chow (Positive Control-Dexamethasone (DEXA))-Dosed as appropriate. […] The dosing solutions were made on a twice weekly basis and stored at 4° C. between dosing. Measurements were taken twice weekly from boost and included: body weight measurement and Arthritic Score on a scale of 0 to 4. Arthritic score 0-4 (0=normal; 1=1-2 digit swollen and mildly red; 2=redness and swelling in mid-foot or ankle; 3=>3 paws and ankle joints swollen and very red); 4=all joints swollen and animal is not using the paw. At onset of arthritis paw measurements were taken with calipers. A baseline of caliper measurements was taken when all visual assessments were zero. Measurements were taken with an electronic caliper that entered measurements directly to an excel spreadsheet. The study was terminated on Day 42 from initial collagen injection. Cardiac blood was taken from each mouse and plasma prepared in EDTA within 15 min of collection. Plasma was frozen at −20° C. for future analysis of cytokines and eicosatrienoic acids. All left hind paws were removed and stored in formalin for future histology.

[5] = 50 mg/kg PO once a day (QD), Day 20 to Day 27
[6] = 50 mg/kg PO twice a day (BID), Day 28 to Day 42

Cmax [1]	area under the curve (AUC), fold higher than COMPOUND #2 [1]	MRT [1]	IC50 ([2]; read-out: IC50 against sEH)	inhibition at 0.05 µM [2]	SMILES	inhibition of IL-6 release in response to LPS ([3]; administered SC, 50 mg/kg)	inhibition of IL-6 release in response to LPS ([3]; given orally, 50 mg/kg)	arthritis score vs Vehicle [4, 5]	arthritis score vs Vehicle [4, 6]	inhibition of IL-6 release in response to LPS ([3]; PO, 100 mg/kg, relative to the vehicle control)
9920 ng/mL	over 20 fold	5.6 h	9 nM	82%	O=C(Nc1ccc(C(F)(F)F)cc1)Nc1cccc(C(=O)N2CCOCC2)c1 [Compound 1, 1-[3-(morpholine-4-carbonyl)-phenyl]-3-(4-trifluoromethyl-phenyl)-urea]	94%	55%	no significant difference from Vehicle	significantly decreased the arthritic score	
6490 ng/mL		1.3 h			CC(=O)N1CCC(NC(=O)NC23CC4CC(CC(C4)C2)C3)CC1 [Compound 2, 1-(1-acetylpiperidn-4-yl)-3-(adamant-1-yl) urea]	51%	51%	not significantly different from Vehicle treated animals	not significantly different from Vehicle treated animals	
				94%	CS(=O)(=O)N1CCC(NC(=O)NC23CC4CC(CC(C4)C2)C3)CC1 [Compound 5, 1-[1-(methylsulfonyl)piperidin-4-yl]-3-(adamant-1-yl) urea]					
					Fc1ccc(-c2nc3n(c2-c2ccncc2)CCS3)cc1 [SKF86002, reference compound]					66%
